Where two headings read alike, the source gives them in different places.
Legend:
[1] = tested on: S. aureus SP-7928 (homo-MRSA); experiment: Sensitivity test (agar dilution); type: cell-based, Staphylococcus aureus
Method in brief: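 Standard Japanese agar dilution method. Drugs alone or combined were serially halved in Mueller Hinton agar, inoculated with overnight (37° C) cultures at about 10^6 CFU/ml. Values are MICs.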

[2] = tested on: Acinetobacter spp. Jan-81; experiment: Sensitivity test (agar dilution), clinical isolate; type: cell-based, Acinetobacter calcoaceticus and Acinetobacter lwoffi
Description: (§1) In addition, the antibacterial activities were tested against strains which are comparatively less sensitive to β-lactam compounds, namely clinically isolated 13 strains of Acinetobacter calcoaceticus and Acinetobacter lwoffi, clinically isolated 11 strains of Serratia marcescens, clinically isolated 12 strains of Burkholderia cepacia, and clinically isolated 15 strains of Pseudomonas aeruginosa.
(§2) According to the standard method of Japan Chemotherapeutic Society (Chemotherapy, vol. […], p 76-79 (1981)) the test was carried out using the agar dilution method. After dissolving test samples in distilled water, agar medium containing the test samples was prepared in such a manner that the final concentration became twice serial dilution by pouring serially diluted combination drug solution or a single drug solution into agar medium. As agar medium was used Mueller Hinton Agar medium (MHA). Then, each strain was cultivated over night at 37° C. in an incubator and suspended in buffered saline solution with gelatin (BSG) in the concentration of about 10^6 CFU/ml. The suspension (about 5 μl) containing test strains was inoculated to the medium containing the test samples by Micro Planter.
(§3) Each drug was weighed, and dissolved in distilled water to give a test sample. When the drugs are used in combination, two kinds of solution containing each drug were mixed so as to be various ratio of concentration to give a mixed solution. When the sample is subjected to sensitivity test, this mixed solution was diluted by twice serial dilution method.
(§4) Furthermore, when the drug is solely used, each test sample was used as it is, and diluted by twice serial dilution method from the maximum concentration to the minimum concentration.

[3] = tested on: Acinetobacter spp. 14712; experiment: Sensitivity test (agar dilution), clinical isolate; type: cell-based, Acinetobacter calcoaceticus and Acinetobacter lwoffi
Description: as §1, §2, §3, §4

[4] = tested on: Acinetobacter spp. Jan-99 (second line, r15); experiment: Sensitivity test (agar dilution), clinical isolate; type: cell-based, Acinetobacter calcoaceticus and Acinetobacter lwoffi; conditions: read-out: MIC
Description: as §1, §2, §3, §4

[5] = tested on: Acinetobacter spp. Jan-54; experiment: Sensitivity test (agar dilution), clinical isolate; type: cell-based, Acinetobacter calcoaceticus and Acinetobacter lwoffi
Description: as §1, §2, §3, §4

[6] = tested on: Acinetobacter spp. 175; experiment: Sensitivity test (agar dilution), clinical isolate; type: cell-based, Acinetobacter calcoaceticus and Acinetobacter lwoffi; conditions: Acinetobacter, read-out: MIC
Description: as §1, §2, §3, §4

[7] = tested on: Acinetobacter spp. 227-1; experiment: Sensitivity test (agar dilution), clinical isolate; type: cell-based, Acinetobacter calcoaceticus and Acinetobacter lwoffi
Description: as §1, §2, §3, §4

[8] = tested on: Acinetobacter spp. 1338-2; experiment: Sensitivity test (agar dilution), clinical isolate; type: cell-based, Acinetobacter calcoaceticus and Acinetobacter lwoffi; conditions: read-out: MIC
Description: as §1, §2, §3, §4

[9] = tested on: Acinetobacter spp. 256; experiment: Sensitivity test (agar dilution), clinical isolate; type: cell-based, Acinetobacter calcoaceticus and Acinetobacter lwoffi
Description: as §1, §2, §3, §4

[10] = tested on: Acinetobacter spp. Jan-99; experiment: Sensitivity test (agar dilution), clinical isolate; type: cell-based, Acinetobacter calcoaceticus and Acinetobacter lwoffi; conditions: Acinetobacter, read-out: MIC
Description: as §1, §2, §3, §4

[11] = tested on: Acinetobacter spp. 1198; experiment: Sensitivity test (agar dilution), clinical isolate; type: cell-based, Acinetobacter calcoaceticus and Acinetobacter lwoffi; conditions: read-out: MIC
Description: as §1, §2, §3, §4

Work on `C[C@H]1C=C(c2csc(SC3=C(C(=O)O)N4C(=O)[C@H]([C@@H](C)O)[C@H]4[C@H]3C)n2)CN1` [SM, (4R,5S,6S)-6-[(1R)-1-Hydroxyethyl]-4-methyl-3-({4-[(5S)-5-methyl-2,5-dihydro-1H-pyrrol-3-yl]-1,3-thiazol-2-yl}sulfanyl)-7-oxo-1-azabicyclo[3.2.0]hept-2-ene-2-carboxylic acid] yielded an MIC ([1]; Staphylococcus aureus, MRSA, Concomitant (AZT:SM = 1:1), S. aureus SP-7928 (homo-MRSA), read-out: MIC concomitant) of 2 µg/mL, an MIC ([1]; Staphylococcus aureus, MRSA, Concomitant (BIPM:SM = 1:1), S. aureus SP-7928 (homo-MRSA), read-out: MIC concomitant) of 2 µg/mL and an MIC ([1]; Staphylococcus aureus, MRSA, Concomitant (CAZ:SM = 1:1), S. aureus SP-7928 (homo-MRSA), read-out: MIC concomitant) of 1 µg/mL. It also gave an MIC ([1]; Staphylococcus aureus, MRSA, Concomitant (CPFX:SM = 1:1), S. aureus SP-7928 (homo-MRSA), read-out: MIC concomitant) of 0.25 µg/mL, an MIC ([1]; Staphylococcus aureus, MRSA, Concomitant (DRPM:SM = 1:1), S. aureus SP-7928 (homo-MRSA), read-out: MIC concomitant) of 1 µg/mL and an MIC ([1]; Staphylococcus aureus, MRSA, Concomitant (IPM:SM = 1:1), read-out: MIC) of 2 µg/mL. It also gave an MIC ([1]; Staphylococcus aureus, MRSA, Concomitant (MEPM:SM = 1:1), read-out: MIC) of 1 µg/mL, an MIC ([1]; Staphylococcus aureus, MRSA, Concomitant (MEPM:SM = 1:2), read-out: MIC) of 2 µg/mL and an MIC ([1]; Staphylococcus aureus, MRSA, Concomitant (MEPM:SM = 1:4), read-out: MIC) of 2 µg/mL. For the same compound, the MIC ([1]; Staphylococcus aureus, MRSA, Concomitant (PAPM:SM = 1:1), S. aureus SP-7928 (homo-MRSA), read-out: MIC concomitant) was 2 µg/mL, the MIC ([1]; Staphylococcus aureus, MRSA, Concomitant (PIPC:SM = 1:1), S. aureus SP-7928 (homo-MRSA), read-out: MIC concomitant) was 1 µg/mL and the MIC ([1]; Staphylococcus aureus, MRSA, Concomitant drug (MEPM:SM = 2:1), read-out: MIC) was 1 µg/mL. For the same compound, the MIC ([1]; Staphylococcus aureus, MRSA, alone, read-out: MIC) was 1 µg/mL, the MIC ([1]; Staphylococcus aureus, MRSA, drug alone, S. aureus SP-7928 (homo-MRSA), read-out: MIC alone) was 2 µg/mL and the MIC ([1]; alone) was 2 µg/mL. It also gave an MIC alone ([1]; drug alone, S. aureus SP-7928 (homo-MRSA)) of 1 µg/mL, an MIC ([2]; Concomitant (ME:SM = 1:1)) of 8 µg/mL and an MIC ([2]; Concomitant (ME:SM = 1:2)) of 4 µg/mL. For the same compound, the MIC ([2]; Concomitant (ME:SM = 1:4)) was 8 µg/mL, the MIC ([2]; Concomitant (ME:SM = 2:1)) was 2 µg/mL and the MIC ([2]; alone) was 32 µg/mL. The MIC ([3]; SPP.14712, Concomitant (ME:SM = 1:1)) was 0.5 µg/mL, the MIC ([3]; SPP.14712, Concomitant (ME:SM = 1:2)) was 1 µg/mL and the MIC ([3]; SPP.14712, Concomitant (ME:SM = 1:4)) was 1 µg/mL. The MIC ([3]; SPP.14712, Concomitant (ME:SM = 2:1)) was 0.25 µg/mL, the MIC ([3]; SPP.14712, alone) was 2 µg/mL and the MIC ([4]; Concomitant (ME:SM = 1:1)) was 0.5 µg/mL. For the same compound, the MIC ([4]; Concomitant (ME:SM = 1:2)) was 0.5 µg/mL, the MIC ([4]; Concomitant (ME:SM = 1:4)) was 0.5 µg/mL and the MIC ([4]; Concomitant (ME:SM = 2:1)) was 0.25 µg/mL. For the same compound, the MIC ([4]; alone) was 2 µg/mL, the MIC ([5]; Concomitant (ME:SM = 1:1)) was 0.5 µg/mL and the MIC ([5]; Concomitant (ME:SM = 1:2)) was 1 µg/mL. For the same compound, the MIC ([5]; Concomitant (ME:SM = 1:4)) was 1 µg/mL, the MIC ([5]; Concomitant (ME:SM = 2:1)) was 0.25 µg/mL and the MIC ([5]; alone) was 2 µg/mL. For the same compound, the MIC ([6]; SPP.175, Concomitant (ME:SM = 1:1)) was 0.125 µg/mL, the MIC ([6]; SPP.175, Concomitant (ME:SM = 1:2)) was 0.125 µg/mL and the MIC ([6]; SPP.175, Concomitant (ME:SM = 1:4)) was 0.25 µg/mL. The MIC ([6]; SPP.175, Concomitant (ME:SM = 2:1)) was 0.063 µg/mL, the MIC ([6]; SPP.175, alone) was 0.5 µg/mL and the MIC ([7]; SPP.2271, Concomitant (ME:SM = 1:1)) was 0.5 µg/mL. The MIC ([7]; SPP.2271, Concomitant (ME:SM = 1:2)) was 1 µg/mL, the MIC ([7]; SPP.2271, Concomitant (ME:SM = 1:4)) was 1 µg/mL and the MIC ([7]; SPP.2271, Concomitant (ME:SM = 2:1)) was 0.25 µg/mL. For the same compound, the MIC ([7]; SPP.2271, alone) was 2 µg/mL, the MIC ([8]; SPP.13382, Concomitant (ME:SM = 1:1)) was 0.5 µg/mL and the MIC ([8]; SPP.13382, Concomitant (ME:SM = 1:2)) was 1 µg/mL. The MIC ([8]; SPP.13382, Concomitant (ME:SM = 1:4)) was 0.5 µg/mL, the MIC ([8]; SPP.13382, Concomitant (ME:SM = 2:1)) was 0.25 µg/mL and the MIC ([8]; SPP.13382, alone) was 0.5 µg/mL. For the same compound, the MIC ([9]; SPP.256, Concomitant (ME:SM = 1:1)) was 0.5 µg/mL, the MIC ([9]; SPP.256, Concomitant (ME:SM = 1:2)) was 1 µg/mL and the MIC ([9]; SPP.256, Concomitant (ME:SM = 1:4)) was 1 µg/mL. It also gave an MIC ([9]; SPP.256, Concomitant (ME:SM = 2:1)) of 0.25 µg/mL, an MIC ([9]; SPP.256, alone) of 1 µg/mL and an MIC ([10]; Concomitant (ME:SM = 1:1)) of 0.25 µg/mL. It also gave an MIC ([10]; Concomitant (ME:SM = 1:2)) of 0.25 µg/mL, an MIC ([10]; Concomitant (ME:SM = 1:4)) of 0.5 µg/mL and an MIC ([10]; Concomitant (ME:SM = 2:1)) of 0.125 µg/mL. It also gave an MIC ([10]; alone) of 0.5 µg/mL, an MIC ([11]; SPP.1198, Concomitant (ME:SM = 1:1)) of 0.25 µg/mL and an MIC ([11]; SPP.1198, Concomitant (ME:SM = 1:2)) of 0.25 µg/mL. The MIC ([11]; SPP.1198, Concomitant (ME:SM = 1:4)) was 0.25 µg/mL, the MIC ([11]; SPP.1198, Concomitant (ME:SM = 2:1)) was 0.125 µg/mL and the MIC ([11]; SPP.1198, alone) was 0.5 µg/mL.

Reference: patent US20090018111A1, “Novel Antimicrobial Medicament” (priority 2004, published 2009)
